# Reference: paper PMC8160210, “Single tryptophan Y160W mutant of homooligomeric E. coli purine nucleoside phosphorylase implies that dimers forming the hexamer are functionally not equivalent” (Scientific Reports, 2021)
# T1: WT E. coli PNP (Escherichia coli, UniProt P0ABP8)
# T1 construct: made in house
# T1 sequence (P0ABP8 2-239 limits assumed): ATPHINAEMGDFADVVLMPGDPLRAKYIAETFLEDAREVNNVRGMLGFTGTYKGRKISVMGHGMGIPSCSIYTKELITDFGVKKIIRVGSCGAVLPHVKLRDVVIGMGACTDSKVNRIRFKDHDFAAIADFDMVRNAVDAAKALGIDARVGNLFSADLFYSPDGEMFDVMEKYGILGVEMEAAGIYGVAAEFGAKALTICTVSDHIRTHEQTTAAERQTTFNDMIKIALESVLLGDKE
# Columns and labels:
# WT E. coli PNP [1] = target: T1, WT E. coli PNP; experiment: Enzymatic specific activity, spectrophotometric assay; type: biochemical; conditions: WT PNP (reference = 100); pH 7.0, 50 mM Hepes, 25 °C, 50 mM phosphate
# Protocol: (§1) All activity measurements and kinetic studies were done in 50 mM Hepes/HCl buffer pH 7.0 at 25 °C as previously described for the WT E. coli PNP and its active-site mutants, using direct spectrophotometric assay for adenosine, guanosine and 7-methylguanosine as substrates, and a coupled assay with xanthine oxidase in the case of inosine[13],[28],[29]. Activity measurements were performed for each protein sample, before and after each experiment as a control of the state of the protein.
# Y160W PNP mutant [2] = target: T2, Y160W PNP mutant (Escherichia coli, UniProt P0ABP8, Y161W); experiment: as above; type: biochemical, E. coli; design: made in house; host or cells: E. coli DH5α-T1; conditions: pH 7.0, 50 mM Hepes, 25 °C, 50 mM phosphate; for Enzymatic specific activity relative to WT: Y160W vs WT; for Enzymatic specific activity: Y160W
# Protocol: as §1
# WT E. coli PNP [3] = target: T1, WT E. coli PNP; design: method as in PMID 21672603; conditions: pH 7.0, 50 mM Hepes, 25 °C, 50 mM phosphate; cited from earlier work
# WT E. coli PNP [4] = target: T1, WT E. coli PNP; experiment: Kinetic studies with variable substrate; type: biochemical; conditions: nucleoside as variable substrate, 50 mM phosphate, Michaelis–Menten, pH 7.0, 25 °C
# Protocol: as §1
# (§2) The classical Michaelis–Menten equation was fitted to the kinetic curves (i.e. initial rate of the reaction, v0, vs. initial substrate concentration, c0):1 v0c0=Vmax1c0/c0+KM1
# (§3) Coefficients a and b express the degree of cooperation between the subunits in a dimer, while constants KM1 and Vmax1 characterize the active sites of the enzyme when the neighbouring site is free.
# (§4) A more complex model was used if there was a statistically significant decrease in the residual sum of squares as judged by the F test at 95% confidence level.
# Y160W PNP mutant [5] = target: T2, Y160W PNP mutant; conditions: nucleoside as variable substrate, 50 mM phosphate, Michaelis–Menten, pH 7.0, 25 °C
# Protocol: Activity measurements were performed for each protein sample, before and after each experiment as a control of the state of the protein.
# as §2, §3, §4
# WT E. coli PNP [6] = target: T1, WT E. coli PNP; design: method as in PMID 30337572; conditions: m^7Guo as variable substrate, 50 mM phosphate, Michaelis–Menten; cited from earlier work
# [7] = tested on: Nc1nc2c(ncn2[C@@H]2O[C@H](CO)[C@@H](O)[C@H]2O)c(=O)[nH]1; experiment: purified protein, by the assay type; conditions: other: Y160W, nucleoside as variable substrate, 50 mM phosphate, Michaelis–Menten, pH 7.0, 25 °C
# [8] = substrate: Nc1nc2c(ncn2[C@@H]2O[C@H](CO)[C@@H](O)[C@H]2O)c(=O)[nH]1; experiment: Kinetic studies with variable substrate; type: biochemical, E. coli; conditions: other: WT, nucleoside as variable substrate, 50 mM phosphate, Michaelis–Menten, pH 7.0, 25 °C
# Protocol: as §1, §2, §3, §4
# T2 sequence (P0ABP8 2-239 Y161W): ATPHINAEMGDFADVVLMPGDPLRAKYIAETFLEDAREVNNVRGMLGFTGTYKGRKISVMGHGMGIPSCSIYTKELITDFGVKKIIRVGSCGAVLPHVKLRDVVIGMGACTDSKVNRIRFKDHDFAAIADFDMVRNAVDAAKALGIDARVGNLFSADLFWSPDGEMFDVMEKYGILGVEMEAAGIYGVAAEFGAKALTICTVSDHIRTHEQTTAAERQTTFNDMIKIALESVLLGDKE
Molecule,Enzymatic specific activity relative to WT (WT E. coli PNP [1]) [%],Enzymatic specific activity relative to WT (Y160W PNP mutant [2]) [%],Enzymatic specific activity (Y160W PNP mutant [2]) [U/mg],Enzymatic specific activity (WT E. coli PNP [3]) [U/mg],also measured
"Nc1ncnc2c1ncn2[C@@H]1O[C@H](CO)[C@@H](O)[C@H]1O [Ado, Adenosine]",100,112,65.6 ± 14.2,58.5 ± 5.9,–
"Nc1nc2c(ncn2[C@@H]2O[C@H](CO)[C@@H](O)[C@H]2O)c(=O)[nH]1 [Guo, Guanosine]",100,60,36.2 ± 2.0,60.4 ± 6.7,–
"O=c1[nH]cnc2c1ncn2[C@@H]1O[C@H](CO)[C@@H](O)[C@H]1O [Ino, Inosine]",100,88,91.1 ± 8.9,103.2 ± 4.0,–
"C[n+]1cn([C@@H]2O[C@H](CO)[C@@H](O)[C@H]2O)c2nc(N)[nH]c(=O)c21 [m^7Guo, 7-Methylguanosine]",100,108,23.2 ± 1.2,21.4 ± 1.6,Vmax (WT E. coli PNP [4]): 22.7 ± 0.3 U/mg; Km (Y160W PNP mutant [5]): 71.3 ± 3 µM; Vmax (Y160W PNP mutant [5]): 21 ± 1 U/mg; Km (WT E. coli PNP [6]): 27.2 µM
Y160W PNP mutant (Escherichia coli K-12; Y161W),–,–,–,–,Km [7]: 128 ± 2 µM; Vmax [7]: 42.8 ± 0.3 U/mg
"WT E. coli PNP (Escherichia coli K-12) (protein, made in house) ATPHINAEMGDFADVVLMPGDPLRAKYIAETFLEDAREVNNVRGMLGFTGTYKGRKISVMGHGMGIPSCSIYTKELITDFGVKKIIRVGSCGAVLPHVKLRDVVIGMGACTDSKVNRIRFKDHDFAAIADFDMVRNAVDAAKALGIDARVGNLFSADLFYSPDGEMFDVMEKYGILGVEMEAAGIYGVAAEFGAKALTICTVSDHIRTHEQTTAAERQTTFNDMIKIALESVLLGDKE",–,–,–,–,Km [8]: 28 ± 4 µM; Vmax [8]: 51.1 ± 2.3 U/mg
